Assay results reported in patent US20260347347A1, “2-AZA-AND 2-OXABICYCLO[2.1.1]HEXANE DERIVATIVES AS FACTOR XIIA ENZYME INHIBITORS” (KALVISTA PHARMACEUTICALS LIMITED, priority 2022, published 2026).
Where two headings read alike, the source gives them in different places.

Legend:
Human Factor XIIa = target: T1, Human Factor XIIa (Homo sapiens, UniProt P00748); experiment: Determination of FXIIa inhibition (in vitro IC50 assay, fluorogenic substrate H-DPro-Phe-Arg-AFC); type: biochemical
T1 construct: purchased Enzyme Research Laboratories
T1 sequence (P00748 373-615 limits assumed): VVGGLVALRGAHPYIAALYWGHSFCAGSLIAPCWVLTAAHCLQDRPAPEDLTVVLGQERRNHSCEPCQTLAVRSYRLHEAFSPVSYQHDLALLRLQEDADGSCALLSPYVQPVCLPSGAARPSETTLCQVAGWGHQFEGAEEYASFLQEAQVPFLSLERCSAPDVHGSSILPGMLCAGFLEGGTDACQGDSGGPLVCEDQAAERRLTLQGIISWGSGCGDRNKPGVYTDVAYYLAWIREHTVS
T1 sequence (P00748 20-372 partner limits assumed): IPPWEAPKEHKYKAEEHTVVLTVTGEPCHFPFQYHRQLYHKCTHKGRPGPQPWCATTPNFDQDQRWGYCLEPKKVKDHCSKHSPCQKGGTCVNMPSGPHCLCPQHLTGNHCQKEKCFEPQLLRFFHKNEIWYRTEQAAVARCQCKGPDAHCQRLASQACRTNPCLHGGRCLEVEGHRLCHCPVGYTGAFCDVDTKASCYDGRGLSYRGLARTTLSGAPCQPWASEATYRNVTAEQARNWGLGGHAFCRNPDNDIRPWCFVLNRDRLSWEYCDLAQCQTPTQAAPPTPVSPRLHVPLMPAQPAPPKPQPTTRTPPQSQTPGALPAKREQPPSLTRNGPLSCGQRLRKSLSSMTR
Method in brief: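 Human FXIIa incubated at 25 °C with compound and H-DPro-Phe-Arg-AFC at its Km concentration. Linear fluorescence increase monitored over 5 min, expressed as % of uninhibited activity; IC50 is concentration giving 50% inhibition.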

human PKal = target: T2, human PKal (Homo sapiens, UniProt P03952); experiment: Determination of related protease inhibition: plasma kallikrein; type: biochemical
T2 construct: FXIIa converts plasma prekallikrein (PK) to plasma kallikrein (PKa)
Procedure: (§1) In vitro inhibition of related proteases was determined using an IC50 assay based on standard literature methods (see e.g. Shori et al., Biochem. Pharmacol., 1992,43, 1209; Bouckaert et al., European Journal of Medicinal Chemistry 110 (2016) 181). Human serine protease enzyme Plasma Kallikrein, KLK1, FXa, Plasmin, Thrombin and Trypsin were assayed for enzymatic activity using an appropriate fluorogenic substrate at Km concentration, FXIa at fixed substrate concentration of 100 μM and various concentrations of the test compound. Protease activity was measured by monitoring the accumulation of liberated fluorescence from the substrate over 5 min at 25 °C. The linear rate of fluorescence increase per minute was expressed as percentage (%) activity. IC50 values were calculated as the concentration of inhibitor giving 50% inhibition of the uninhibited enzyme activity (100%).

human KLK1 = human KLK1 (Homo sapiens, UniProt P06870); experiment: Determination of related protease inhibition: KLK1; type: biochemical
Procedure: as §1

human plasmin = human plasmin (Homo sapiens, UniProt P00747); experiment: Determination of related protease inhibition: plasmin; type: biochemical
Procedure: as §1

human FXa = human FXa (Homo sapiens, UniProt P00742); experiment: Determination of related protease inhibition: FXa; type: biochemical
Procedure: as §1

human FXIa = human FXIa (Homo sapiens, UniProt P03951); experiment: Determination of related protease inhibition: FXIa; type: biochemical
Procedure: as §1

human thrombin = human thrombin (Homo sapiens, UniProt P00734); experiment: Determination of related protease inhibition: thrombin; type: biochemical
Procedure: as §1

human trypsin = experiment: Determination of related protease inhibition: trypsin; type: biochemical; settings: fluorogenic substrate at Km concentration, 25 °C
Procedure: as §1

[1] = test system: patients with type I/II hereditary angioedema (HAE); settings: phase 3, monthly prophylactic subcutaneous treatment; cited from earlier work
[2] = human Factor XIIa, fluorogenic substrate H-DPro-Phe-Arg-AFC at Km concentration, 5 min, 25 °C, class symbols, read-out: Human FXIIa IC50
[3] = fluorogenic substrate at Km concentration, 25 °C, read-out: IC50 (human PKal)
[4] = fluorogenic substrate at Km concentration, 25 °C, read-out: IC50 (human KLK1)
[5] = fluorogenic substrate at Km concentration, 25 °C, read-out: IC50 (human plasmin)
[6] = fluorogenic substrate at Km concentration, 25 °C, read-out: IC50 (human FXa)
[7] = fluorogenic substrate at Km concentration, 25 °C, read-out: IC50 (human thrombin)

Chain of human plasmin (P00747 581-810 limits assumed): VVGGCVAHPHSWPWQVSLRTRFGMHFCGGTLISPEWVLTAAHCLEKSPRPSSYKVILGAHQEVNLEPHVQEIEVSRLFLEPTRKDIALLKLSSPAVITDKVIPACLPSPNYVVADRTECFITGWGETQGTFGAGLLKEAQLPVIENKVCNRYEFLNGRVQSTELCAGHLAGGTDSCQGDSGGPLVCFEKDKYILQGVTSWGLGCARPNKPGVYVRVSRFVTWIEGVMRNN
Chain of human plasmin (P00747 97-580 partner limits assumed): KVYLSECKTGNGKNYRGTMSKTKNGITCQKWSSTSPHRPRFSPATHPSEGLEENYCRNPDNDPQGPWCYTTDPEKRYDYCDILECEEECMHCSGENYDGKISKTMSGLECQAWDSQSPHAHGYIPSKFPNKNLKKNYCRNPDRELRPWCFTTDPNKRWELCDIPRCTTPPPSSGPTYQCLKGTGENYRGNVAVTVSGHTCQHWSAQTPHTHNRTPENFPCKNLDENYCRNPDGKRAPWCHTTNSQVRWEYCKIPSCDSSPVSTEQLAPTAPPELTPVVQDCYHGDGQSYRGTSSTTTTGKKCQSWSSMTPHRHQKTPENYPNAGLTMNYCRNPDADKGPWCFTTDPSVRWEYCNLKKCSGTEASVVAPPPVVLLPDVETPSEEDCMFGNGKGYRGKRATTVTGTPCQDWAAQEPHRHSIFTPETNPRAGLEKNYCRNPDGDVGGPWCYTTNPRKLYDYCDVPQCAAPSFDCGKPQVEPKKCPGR
Chain of human KLK1 (P06870 25-262): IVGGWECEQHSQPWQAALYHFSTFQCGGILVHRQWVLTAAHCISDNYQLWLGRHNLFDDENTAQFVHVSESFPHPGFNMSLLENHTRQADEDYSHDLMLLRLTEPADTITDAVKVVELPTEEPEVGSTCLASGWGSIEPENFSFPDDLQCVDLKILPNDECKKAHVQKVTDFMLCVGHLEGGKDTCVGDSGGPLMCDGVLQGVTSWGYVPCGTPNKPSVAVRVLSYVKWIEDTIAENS
Chain of human FXa (P00742 235-488 limits assumed): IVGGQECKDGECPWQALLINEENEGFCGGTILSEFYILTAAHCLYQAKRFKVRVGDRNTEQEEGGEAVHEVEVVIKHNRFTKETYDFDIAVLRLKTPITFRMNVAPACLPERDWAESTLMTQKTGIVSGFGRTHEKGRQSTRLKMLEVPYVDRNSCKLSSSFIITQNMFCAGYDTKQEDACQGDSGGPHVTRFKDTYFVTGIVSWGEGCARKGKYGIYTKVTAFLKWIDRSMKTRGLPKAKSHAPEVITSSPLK
Chain of human FXa (P00742 41-179 partner limits assumed): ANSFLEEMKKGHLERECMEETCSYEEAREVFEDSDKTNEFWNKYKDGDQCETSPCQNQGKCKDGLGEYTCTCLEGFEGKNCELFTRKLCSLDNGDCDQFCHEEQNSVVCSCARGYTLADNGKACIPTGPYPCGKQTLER
T2 sequence (P03952 391-638 limits assumed): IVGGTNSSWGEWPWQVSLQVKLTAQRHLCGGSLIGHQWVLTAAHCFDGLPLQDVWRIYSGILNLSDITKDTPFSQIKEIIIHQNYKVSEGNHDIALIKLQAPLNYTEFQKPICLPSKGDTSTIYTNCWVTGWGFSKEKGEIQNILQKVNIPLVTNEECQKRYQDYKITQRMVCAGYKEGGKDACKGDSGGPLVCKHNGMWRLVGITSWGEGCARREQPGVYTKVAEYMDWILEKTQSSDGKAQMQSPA
T2 sequence (P03952 20-390 partner limits assumed): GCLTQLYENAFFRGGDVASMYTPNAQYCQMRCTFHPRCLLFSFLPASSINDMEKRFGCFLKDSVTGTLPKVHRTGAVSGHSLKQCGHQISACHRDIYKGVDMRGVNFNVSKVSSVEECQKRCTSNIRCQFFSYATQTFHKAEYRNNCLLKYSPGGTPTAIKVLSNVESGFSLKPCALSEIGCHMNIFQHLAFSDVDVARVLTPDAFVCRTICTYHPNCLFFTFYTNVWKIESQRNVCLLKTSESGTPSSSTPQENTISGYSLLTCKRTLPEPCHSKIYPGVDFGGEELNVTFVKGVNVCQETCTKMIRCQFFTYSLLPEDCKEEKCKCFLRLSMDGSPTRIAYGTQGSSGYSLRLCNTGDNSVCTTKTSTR
Chain of human FXIa (P03951 388-625 limits assumed): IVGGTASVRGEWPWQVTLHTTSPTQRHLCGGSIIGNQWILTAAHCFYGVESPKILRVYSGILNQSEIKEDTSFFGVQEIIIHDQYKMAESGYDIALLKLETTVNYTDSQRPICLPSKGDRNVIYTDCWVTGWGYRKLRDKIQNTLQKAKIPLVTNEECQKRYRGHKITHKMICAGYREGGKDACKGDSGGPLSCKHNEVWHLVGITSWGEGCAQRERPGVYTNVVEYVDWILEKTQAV
Chain of human FXIa (P03951 19-387 partner limits assumed): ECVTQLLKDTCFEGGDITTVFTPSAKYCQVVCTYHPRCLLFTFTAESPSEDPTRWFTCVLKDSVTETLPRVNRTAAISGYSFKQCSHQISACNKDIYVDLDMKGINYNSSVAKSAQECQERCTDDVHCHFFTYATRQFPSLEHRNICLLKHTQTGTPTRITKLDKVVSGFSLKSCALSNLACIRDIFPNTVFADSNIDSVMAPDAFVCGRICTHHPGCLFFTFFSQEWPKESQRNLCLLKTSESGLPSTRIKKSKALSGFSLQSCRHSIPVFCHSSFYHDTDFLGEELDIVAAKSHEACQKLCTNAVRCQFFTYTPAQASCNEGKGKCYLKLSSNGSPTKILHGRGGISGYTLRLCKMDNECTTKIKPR

Row | IC50 (Human Factor XIIa; [2]) | IC50 (human PKal; [3]) | IC50 (human KLK1; [4]) | IC50 (human plasmin; [5]) | IC50 (human FXa; [6]) | IC50 (human thrombin; [7]) | Compound | also measured
1 |  |  |  |  |  |  | Cn1ccc(OCC23CN(C(=O)NC4(c5ccccc5)CC4)C(CNc4cccc5c(N)nccc45)(C2)C3)cc1=O [Example 30, 1-(((1-Aminoisoquinolin-5-yl)amino)methyl)-4-(((1-methyl-2-oxo-1,2-dihydropyridin-4-yl)oxy)methyl)-N-(1-phenylcyclopropyl)-2-azabicyclo[2.1.1]hexane-2-carboxamide] | IC50 (Human Factor XIIa): 1 to 10 nM; IC50 (human PKal): 10 to 40 µM; IC50 (human KLK1): 1 to 3 µM; IC50 (human plasmin): 10 to 40 µM; IC50 (human FXa): 10 to 40 µM; IC50 (human FXIa): 3 to 10 µM; IC50 (human thrombin): > 40 µM
2 | 10 to 100 nM | > 40 µM | 1 to 3 µM | 3 to 10 µM | 10 to 40 µM | 10 to 40 µM | Cn1ccc(OCC23CN(C(=O)CC4CCCCC4)C(CNc4cccc5c(N)nccc45)(C2)C3)cc1=O [Example 5, 4-((1-(((1-aminoisoquinolin-5-yl)amino)methyl)-2-(2-cyclohexylacetyl)-2-azabicyclo[2.1.1]hexan-4-yl)methoxy)-1-methylpyridin-2(1H)-one] | IC50 (human trypsin): 10 to 40 µM
3 |  |  |  |  |  |  | Garadacimab: Garadacimab (CSL-312), a monoclonal antibody inhibitory against FXIIa | attacks in patients with type I/II hereditary angioedema [1]: reduce attacks
4 | 10 to 100 nM | > 40 µM | 10 to 40 µM | 10 to 40 µM | 10 to 40 µM | > 40 µM | Cc1cc(OCC23CN(C(=O)C4CC5(CCOCC5)C4)C(CNc4cccc5c(N)nccc45)(C2)C3)cc(=O)n1C [Example 20, 4-((1-(((1-aminoisoquinolin-5-yl)amino)methyl)-2-(7-oxaspiro[3.5]nonane-2-carbonyl)-2-azabicyclo[2.1.1]hexan-4-yl)methoxy)-1,6-dimethylpyridin-2(1H)-one] | IC50 (human FXIa; fixed substrate concentration of 100 μM, 25 °C, read-out: IC50 (human FXla)): 10 to 40 µM
